Measured values reported in article PMC2787016 (PLoS Pathogens, 2009).
Where a SMILES comes first, the peptide text is derived from it. Where no end group is shown, it is not given here.

What was measured:
[1] = target: HLA-A*1101 (Homo sapiens, UniProt P04439, A114D/D185E/E176A/F33Y/L180Q/S129P/T187R); test: biochemical; assay type: binding
[2] = system: HLA-restricted target cells pulsed with peptide; assay type: cell-based, HLA-A*1101 transgenic mice
[3] = target: HLA-A*0201 (Homo sapiens, UniProt P04439, D140Y/D185E/D98H/E176V/E277Q/G131W/G231S/I119V/I121R/I166T/I218V/L300P/L318F/N151K/N90K/P208A/P217A/Q86G/Q94H/R138H/R169H/T345S); test: biochemical; assay type: binding
[4] = system: peptide-pulsed JA2.1 cells; assay type: cell-based, HLA-A*0201 transgenic mice
[5] = system: human JA2.1 cells infected with the appropriate rVACV; assay type: cell-based, HLA-A*0201 transgenic mice; design: key to Natural processing in human APCs: +, Processed; +/−, weakly processed; −, not processed

Row | Molecule | IC50 [1] | IC50 [3] | further results
1 | LVTFLLLCGR [LASV GPC46–55] | > 5000 nM |  | % of Epitope response [2]: 147%
2 | GLSQFTQTV [JUNV NP19–27] |  | 30 nM | 
3 | RTAPPSLYGR [MACV Z27–36] | 8.9 nM |  | 
4 | TVIKTLLEV [WWAV NP274–282] |  | 276 nM | 
5 | CC(C)C[C@H](NC(=O)[C@H](CC(C)C)NC(=O)[C@H](CC(N)=O)NC(=O)[C@H](CC(C)C)NC(=O)[C@H](CS)NC(=O)[C@H](Cc1c[nH]cn1)NC(=O)[C@H](CCCNC(=N)N)NC(=O)[C@H](CS)NC(=O)[C@H](CC(C)C)NC(=O)[C@@H](N)Cc1ccc(O)cc1)C(=O)O [LCMV Z49–58] (H-YLCRHCLNLL-OH) |  | 3.9 nM | 
6 | AVYNFATCGI [LCMV GPC34–43] |  | 137 nM | 
7 | AMPGVLSYV [MACV NP432–440] |  | 8.4 nM | 
8 | FTNDSIISH [LCMV GPC112–120] | 38 nM |  | 
9 | STYYVHENK [SABV GPC90–98] | 6 nM |  | 
10 | GLLEWIFRA [SABV GPC142–150] |  | 1.2 nM | 
11 | TTYLGPLSCK [LCMV Z24–33] | 2.8 nM |  | 
12 | ATVKNVVLR [GTOV L1977–1985] | 54 nM |  | 
13 | SSQRDTILK [SABV NP82–90] | 9.3 nM |  | 
14 | SIQKNTIFK [MACV NP82–90] | 5.5 nM |  | 
15 | AINIALIAV [SABV GPC18–26] |  | 834 nM | 
16 | GLSQFTHTV [MACV NP19–27] |  | 18 nM | 
17 | LVSFLLLAGR [LCMV GPC46–55] | 70 nM |  | 
18 | SSIIRSLPK [WWAV NP439–447] | 2.5 nM |  | 
19 | SIINHKFCNL [LASV GPC111–120] |  | 2120 nM | 
20 | KCLNIMLGK [SABV Z64–72] | 678 nM |  | 
21 | LLPDALLFTL [SABV NP547–556] |  | 77 nM | 
22 | ALNIALVAV [JUNV GPC18–26] |  | 79 nM | 
23 | ALNIALIAV [WWAV GPC18–26] |  | 27 nM | 
24 | GLLQFIVFL [WWAV GPC42–50] |  | < 0.05 nM | Identified as CD8+ T cell epitope after rVACV infection [4]: identified; Natural processing in human APCs [5]: +; Recognition of rVACV-infected human target cells by peptide-primed CD8+ T cells [5]: robust
